Reference: patent US20220330549A1, “USE OF N-BENZYLBENZAMIDE-BASED COMPOUND AS HERBICIDE” (Northwest A&F University, priority 2020, published 2022)

Key:
Format in all cases: in vivo
Barnyard grass [1] = experiment: Herbicidal activity test for indoor pre-emergence soil treatment; set-up: key: level 1-9; higher = more weed remaining vs blank control; conditions: 150 g a.i./ha, visual inspection 21 days after treatment
Outline: (§1)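 Compounds were formulated as 10% emulsifiable concentrates and sprayed onto the soil 24 h after sowing, at 150 g(a.i.)/ha. Soil was sandy loam (≤2% organic matter), with seeds under 0.5–2.0 cm cover, per NY/T 1155.3-2006. Visual 1–9 ratings relative to blank control were made after 21 days.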

Piemarker [2] = experiment: as above; set-up: key: level 1-9; higher = more weed remaining vs blank control; conditions: 150 g a.i./ha, visual inspection 21 days after treatment
Outline: as §1

green bristlegrass [3] = experiment: as above; set-up: key: level 1-9; higher = more weed remaining vs blank control; conditions: 150 g a.i./ha, visual inspection 21 days after treatment
Outline: as §1

Amaranthus retroflexus [4] = experiment: as above; set-up: key: 1-9 levels; higher = more weed remaining vs blank control; conditions: 150 g a.i./ha, visual inspection 21 days after treatment
Outline: as §1

Digitaria sanguinalis [5] = experiment: as above; set-up: key: 1-9 levels; higher = more weed remaining vs blank control; conditions: 150 g a.i./ha, visual inspection 21 days after treatment
Outline: as §1

Humulus scandens [6] = experiment: as above; conditions: 150 g a.i./ha, visual inspection 21 days after treatment
Outline: as §1

Amaranthus retroflexus [7] = experiment: Herbicidal activity test for indoor post-emergence spraying on stems and leaves; set-up: key: grade level by weed remaining vs blank control, e.g. 5 = 10.1-15%; conditions: 150 g a.i./ha, visual inspection 21 days after treatment
Outline: (§2)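 Weeds were grown in a greenhouse from seed and treated by foliar spraying after emergence, per the NY/T 1155.4-2006 method. Visual grading at 21 days: each level reflects the share of weed remaining versus the untreated blank control area.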

Barnyard grass [8] = experiment: as above; set-up: key: grade level by weed remaining vs blank control, e.g. 5 = 10.1-15%; conditions: 150 g a.i./ha, visual inspection 21 days after treatment
Outline: as §2

Digitaria sanguinalis [9] = experiment: as above; set-up: key: grade level by weed remaining vs blank control, e.g. 5 = 10.1-15%; conditions: 150 g a.i./ha, visual inspection 21 days after treatment
Outline: as §2

Humulus scandens [10] = experiment: as above; set-up: key: grade level by weed remaining vs blank control, e.g. 5 = 10.1-15%; conditions: 150 g a.i./ha, visual inspection 21 days after treatment
Outline: as §2

Piemarker [11] = experiment: as above; set-up: key: grade level by weed remaining vs blank control, e.g. 5 = 10.1-15%; conditions: 150 g a.i./ha, visual inspection 21 days after treatment
Outline: as §2

green bristlegrass [12] = experiment: as above; set-up: key: grade level by weed remaining vs blank control, e.g. 5 = 10.1-15%; conditions: 150 g a.i./ha, visual inspection 21 days after treatment
Outline: as §2

Broadleaf weed = experiment: Post-emergence herbicidal activity test in a paddy field; set-up: key: level scale; higher level = more weed left vs blank control; conditions: 150 g a.i./ha (penoxsulam control 250 g(a.i.)/h)
Outline: (§3)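 Efficacy was visually estimated 15 and 30 days after spraying, grading weed coverage relative to an untreated neighbouring plot (level 2 = 0 to 2.5%, level 9 = 67.6 to 100%). Treatments were 150 g(a.i.)/ha from 10% emulsifiable concentrates applied at the 4-5 leaf rice stage, four repeats of 50 m^2 each.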

Cyperaceae = experiment: as above; set-up: key: level scale; higher level = more weed left vs blank control; conditions: 150 g a.i./ha (penoxsulam control 250 g(a.i.)/h)
Outline: as §3

Gramineae = experiment: as above; set-up: key: level scale; higher level = more weed left vs blank control; conditions: 150 g a.i./ha (penoxsulam control 250 g(a.i.)/h)
Outline: as §3

Acalypha australis = experiment: Field test for weed control in a corn field; conditions: 150 g a.i./ha, after treatment
Outline: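 Herbicidal activity against weeds was assessed in corn plots by the GB/T 17980.42-2000 method. Corn at the 2–5 leaf stage received water sprays of 10% emulsifiable concentrates at 150 g(a.i.)/ha, four repeats per treatment over 20 m^2. A 25% mesotrione oil dispersion was the reference. Damage symptoms and severity were rated on levels 1-9 relative to weeds in the blank control area.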

Amaranthus retroflexus [13] = experiment: Field test for weed control in a corn field; conditions: 150 g a.i./ha, 30 days after treatment
Outline: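 Post-emergence control of Amaranthus retroflexus was assessed in corn plots using the GB/T 17980.42-2000 method. Emulsifiable concentrates (10%) in water were applied by spraying at the 2- to 5-leaf crop stage on 20 m^2 plots, four replicates each, alongside a mesotrione 25% oil dispersion reference. Herbicidal activity was scored on 1-9 levels by weed amount relative to blank control areas.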

Barnyard grass [14] = experiment: Field test for weed control in a corn field; conditions: 150 g a.i./ha, 30 days after treatment
Outline: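 Herbicidal activity against barnyard grass was assessed in corn field plots of 20 m^2, with four replicates per treatment. Compounds were applied as water-diluted 10% emulsifiable concentrates at 150 g(a.i.)/ha at the 2-5 leaf corn stage, with 25% mesotrione oil dispersion as the reference agent. Damage was scored on a 1-9 scale against untreated blank plots.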

Chenopodium album = experiment: Field test for weed control in a corn field; conditions: 150 g a.i./ha, after treatment
Outline: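 Field weed-control testing in corn, run per GB/T 17980.42-2000, scored Chenopodium album on a 1-9 level scale, where each level matches a percentage range of weed remaining relative to the blank control area. Sprays of 10% emulsifiable concentrates in water delivered 150 g(a.i.)/ha at the corn 2-leaf to 5-leaf stage on 20 m^2 plots, four replicates each. Mesotrione 25% oil dispersion served as reference.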

Convolvulus arvensis = experiment: Field test for weed control in a corn field; conditions: 150 g a.i./ha, after treatment
Outline: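 Post-emergence herbicidal activity on Convolvulus arvensis was scored in a corn field on a 1-9 scale, based on symptoms and damage severity. Each level corresponds to the weed remaining as a percentage of the blank control area. Sprays of 10% emulsifiable concentrate at 150 g(a.i.)/ha went on at the corn 2–5 leaf stage, with four replicates of 20 m^2 per treatment.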

Digitaria sanguinalis [15] = experiment: Field test for weed control in a corn field; conditions: 150 g a.i./ha, after treatment
Outline: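 Field trial in a corn field following GB/T 17980.42-2000. Test compounds were formulated as 10% emulsifiable concentrates, diluted in water and sprayed post-emergence at 150 g(a.i.)/ha when corn had 2 to 5 leaves, with 4 replicates on 20 m^2 plots. Control of Digitaria sanguinalis was scored on a 1-9 scale based on weed damage relative to the untreated blank area.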

Portulaca oleracea = experiment: Field test for weed control in a corn field; conditions: 150 g a.i./ha, after treatment
Outline: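 Post-emergence weed control was evaluated in a corn field by the GB/T 17980.42-2000 method. Emulsifiable concentrates (10%) in water were applied as sprays at 150 g(a.i.)/ha at the 2-5 leaf corn stage, in four replicate 20 m^2 plots. A 25% mesotrione oil dispersion served as control agent. Effects were graded 1-9 relative to weed remaining in blank control areas.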

Solanum nigrum = experiment: Field test for weed control in a corn field; conditions: 150 g a.i./ha, 30 days after treatment
Outline: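 In a corn field trial based on GB/T 17980.42-2000, 10% emulsifiable concentrates diluted in water were sprayed at 150 g(a.i.)/ha at the 2 to 5 leaf stage of corn. Each treatment used 20 m^2 plots and was repeated 4 times, with 25% mesotrione oil dispersion as the reference agent. Solanum nigrum damage was scored on a 1-9 scale against blank control plots.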

goosegrass = experiment: Field test for weed control in a corn field; conditions: 150 g a.i./ha, after treatment
Outline: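 In this field trial in corn, run per GB/T 17980.42-2000, test agents prepared as 10% emulsifiable concentrates were applied in water as sprays at 150 g(a.i.)/ha at the 2- to 5-leaf corn stage. Each treatment covered 20 m^2 and was repeated 4 times. Goosegrass control was scored 1-9 relative to weed remaining in blank control areas.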

green bristlegrass [16] = experiment: Field test for weed control in a corn field; conditions: 150 g a.i./ha, after treatment
Outline: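 Herbicidal activity against green bristlegrass was assessed in corn field plots of 20 m^2 per GB/T 17980.42-2000. Test agents, formulated as 10% emulsifiable concentrates, were applied in water at 150 g(a.i.)/ha at the corn 2 leaves to 5 leaves stage, repeated 4 times. A 25% mesotrione oil dispersion served as the control agent, and weed damage was rated on levels 1-9.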

nutgrass flatsedge = experiment: Field test for weed control in a corn field; conditions: 150 g a.i./ha, after treatment
Outline: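 Herbicidal effect on nutgrass flatsedge was measured in a field planted with corn, using the GB/T 17980.42-2000 method. Emulsifiable concentrates (10%) in water were sprayed at 150 g(a.i.)/ha during the 2-leaf to 5-leaf corn stage, on 20 m^2 plots repeated 4 times. 25% mesotrione oil dispersion was the control agent. Activity was scored from 1 to 9 by weed remaining relative to blank control plots.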

Structure (SMILES)	Herbicidal Activity Barnyard grass (Barnyard grass [1])	Herbicidal Activity Piemarker (Piemarker [2])	Herbicidal Activity Green bristlegrass (green bristlegrass [3])	Herbicidal Activity Amaranthus retroflexus (Amaranthus retroflexus [4])	Herbicidal Activity Digitaria sanguinalis (Digitaria sanguinalis [5])	Herbicidal Activity Humulus scandens (Humulus scandens [6])	Herbicidal Activity Amaranthus retroflexus (Amaranthus retroflexus [7])	Herbicidal Activity Barnyard grass (Barnyard grass [8])	Herbicidal Activity Digitaria sanguinalis (Digitaria sanguinalis [9])	Herbicidal Activity Humulus scandens (Humulus scandens [10])	Herbicidal Activity Piemarker (Piemarker [11])	Herbicidal Activity Green bristlegrass (green bristlegrass [12])	Herbicidal activity 15 days after treatment Broadleaf weed (Broadleaf weed)	Herbicidal activity 30 days after treatment Broadleaf weed (Broadleaf weed)	Herbicidal activity 15 days after treatment Cyperaceae (Cyperaceae)	Herbicidal activity 30 days after treatment Cyperaceae (Cyperaceae)	Herbicidal activity 15 days after treatment Gramineae (Gramineae)	Herbicidal activity 30 days after treatment Gramineae (Gramineae)	Post-emergence weed control effect, Acalypha australis (Acalypha australis)	Post-emergence weed control effect, Amaranthus retroflexus (Amaranthus retroflexus [13])	further results
COc1ncccc1C(=O)NCc1cccc(C)c1 [Compound A85]	1	1	1	2 (equivalent to 0 to 2.5% of the weed in the blank control area)	1	3 (equivalent to 2.6 to 5% of the weed in the blank control area)	1	1	1	1	1	1	1	1	1	1	2 (equivalent to 0 to 2.5% of the weed in the blank control area)	1	1	1	Post-emergence weed control effect, Barnyard grass (Barnyard grass [14]): 1; Post-emergence weed control effect, Chenopodium album (Chenopodium album): 1; Post-emergence weed control effect, Convolvulus arvensis (Convolvulus arvensis): 1; Post-emergence weed control effect, Digitaria sanguinalis (Digitaria sanguinalis [15]): 2 (equivalent to 0 to 2.5% of the weed in the blank control area); Post-emergence weed control effect, Portulaca oleracea (Portulaca oleracea): 1; Post-emergence weed control effect, Solanum nigrum (Solanum nigrum): 2 (equivalent to 0 to 2.5% of the weed in the blank control area); Post-emergence weed control effect, Goose grass (goosegrass): 2 (equivalent to 0 to 2.5% of the weed in the blank control area); Post-emergence weed control effect, Green bristlegrass (green bristlegrass [16]): 1; Post-emergence weed control effect, Nutgrass flatsedge (nutgrass flatsedge): 2 (equivalent to 0 to 2.5% of the weed in the blank control area)
COc1ncccc1C(=O)NCc1ccc(F)cc1 [Compound A94]	1	1	1	1	1	2 (equivalent to 0 to 2.5% of the weed in the blank control area)	1	1	1	1	1	1	1	1	1	2 (equivalent to 0 to 2.5% of the weed in the blank control area)	2 (equivalent to 0 to 2.5% of the weed in the blank control area)	2 (equivalent to 0 to 2.5% of the weed in the blank control area)	2 (equivalent to 0 to 2.5% of the weed in the blank control area)	1	Post-emergence weed control effect, Barnyard grass (Barnyard grass [14]): 1; Post-emergence weed control effect, Chenopodium album (Chenopodium album): 1; Post-emergence weed control effect, Convolvulus arvensis (Convolvulus arvensis): 2 (equivalent to 0 to 2.5% of the weed in the blank control area); Post-emergence weed control effect, Digitaria sanguinalis (Digitaria sanguinalis [15]): 2 (equivalent to 0 to 2.5% of the weed in the blank control area); Post-emergence weed control effect, Portulaca oleracea (Portulaca oleracea): 1; Post-emergence weed control effect, Solanum nigrum (Solanum nigrum): 2 (equivalent to 0 to 2.5% of the weed in the blank control area); Post-emergence weed control effect, Goose grass (goosegrass): 1; Post-emergence weed control effect, Green bristlegrass (green bristlegrass [16]): 2 (equivalent to 0 to 2.5% of the weed in the blank control area); Post-emergence weed control effect, Nutgrass flatsedge (nutgrass flatsedge): 3 (equivalent to 2.6 to 5% of the weed in the blank control area)
